Values of other authors, collected in patent US20250275973A1, “USE OF ALC1 INHIBITORS AND SYNERGY WITH PARPI” (EISBACH BIO GMBH, priority 2022, published 2025).

Test system: GFP-tagged PARP1 and PARP2
Settings: U2OS cells treated with PARPi; background section

Compound	retention/recruitment of GFP-tagged PARP1 and PARP2 at induced DNA lesions
Cn1ncnc1[C@H]1c2n[nH]c(=O)c3cc(F)cc(c23)N[C@@H]1c1ccc(F)cc1 [talazoparib]	enhanced retention
C[C@]1(c2nc3c(C(N)=O)cccc3[nH]2)CCCN1 [veliparib]	overall less PARP1/PARP2 recruitment
